Experimental data: the NIST ThermoML archive (doi:10.1021/je060314n)
Numbers after ± are expanded uncertainties.

Key:
[1] = Liquid; for mass density: 298.15 K, 101.33 kPa, Vibrating tube method
[2] = refractive index (Na D-line) (dimensionless); conditions: 298.15 K; 101.33 kPa; Liquid; Standard Abbe refractometry

| mass density [1] [kg/m3] | vapor or sublimation pressure ([1]; 418.69 K) [kPa] | refractive index [2] | vapor or sublimation pressure ([1]; 363.16 K) [kPa] | vapor or sublimation pressure ([1]; 369.75 K) [kPa] | Compound |
| --- | --- | --- | --- | --- | --- |
| 870.88 ± 0.23 | 101.3 ± 2 | 1.3992 ± 0.0005 |  |  | CCCCOC(=O)CC [butyl propanoate] |
| 741.81 ± 0.16 |  | 1.3784 ± 0.0005 | 101.3 ± 2 |  | CCCOCCC [dipropyl ether] |
| 799.62 ± 0.14 |  | 1.3836 ± 0.0005 |  | 101.3 ± 2 | CCCO [propan-1-ol] |
